≈ marks a conversion by molar mass, not a printed value.
Assays:
Assay type in all cases: functional
Escherichia coli [1] = experiment: […] against Escherichia coli Juhl (100 X LD50) (s.c. administration); Range is between(0.2-0.5); details: sc
Klebsiella aerogenes = experiment: In vitro antibacterial activity against Enterobacter aerogenes ATCC 13048
Escherichia coli [2] = experiment: In vitro antibacterial activity against Escherichia coli Juhl
Klebsiella pneumoniae = experiment: In vitro antibacterial activity against Klebsiella pneumoniae 8045
Pseudomonas aeruginosa [3] = experiment: FIn vitro antibacterial activity against Pseudomonas aeruginosa K799/WT
[4] = tested on: Staphylococcus epidermidis; experiment: In vitro antibacterial activity against Staphylococcus epidermis 3519
Streptococcus pyogenes = experiment: In vitro antibacterial activity against Streptococcus pyogenes 930
Staphylococcus aureus [5] = experiment: In vitro antibacterial activity against Staphylococcus aureus CMX 686B
Staphylococcus aureus [6] = experiment: In vitro antibacterial activity against Staphylococcus aureus ATCC 6538P
Enterococcus faecium = experiment: In vitro antibacterial activity against Streptococcus faecium ATCC 8043
Acinetobacter = experiment: In vitro antibacterial activity against Acinetobacter CMX 669
Pseudomonas aeruginosa [7] = experiment: In vitro antibacterial activity against Pseudomonas aeruginosa 5007
Escherichia coli [8] = experiment: […] against Escherichia coli Juhl (100 X LD50) (p.o. administration );Range is between (2.2-7.0)
Escherichia coli [9] = experiment: […] against Escherichia coli Juhl (100 X LD50) (s.c. administration );Range is between (1.6-3.9)
Pseudomonas aeruginosa [10] = experiment: […] against Pseudomonas aeruginosa 5007 (100 X LD50) (peroral administration );Range is between (17.7-44.1)
Pseudomonas aeruginosa [11] = experiment: […] against Pseudomonas aeruginosa 5007 (100 X LD50) (subcutaneous administration );Range is between (6.6-16.2)
Pseudomonas aeruginosa [12] = experiment: In vitro antibacterial activity against Pseudomonas aeruginosa K799/WT
Staphylococcus aureus [13] = experiment: In vitro mouse protection test against Staphylococcus aureus NCTC 10649 (100 X LD50) (s.c. administration );Range is between (2.6-5.4).; details: sc
Staphylococcus aureus [14] = experiment: […] against Staphylococcus aureus NCTC 10649 (100 X LD50),(peroral administration); Range is between (3.7-10.2).; details: po
Escherichia coli [15] = experiment: […] against Escherichia coli Juhl (100 X LD50); Range is between (2.0-5.0)
Escherichia coli [16] = experiment: Compound was evaluated in vivo for antibacterial activity against Escherichia coli Juhl (100 X LD50) (s.c. administration); range is between (0.6-2.5); details: sc
Escherichia coli [17] = experiment: Compound was evaluated in vivo for antibacterial activity against Escherichia coli Juhl (100 X LD50)
Pseudomonas aeruginosa [18] = experiment: […] against Pseudomonas aeruginosa 5007 (100 X LD50) (peroral administration); Range is between (15.8-[…]); details: po
Pseudomonas aeruginosa [19] = experiment: […] against Pseudomonas aeruginosa 5007 (100 X LD50) (subcutaneous administration); Range is between (4.9-8.1); details: sc
Pseudomonas aeruginosa [20] = experiment: Compound was evaluated in vivo for antibacterial activity against Pseudomonas aeruginosa 5007 (100 X LD50) (p.o. administration); Range is between (15.8-39.6).; details: po
Pseudomonas aeruginosa [21] = experiment: Compound was evaluated in vivo for antibacterial activity against Pseudomonas aeruginosa 5007 (100 X LD50) (s.c. administration); Range is between (4.9-8.1); details: sc
Staphylococcus aureus [22] = experiment: Compound was evaluated in vivo for antibacterial activity against Staphylococcus aureus NCTC 10649 (100 X LD50) (p.o. administration); Range is between (7.9-19-7).; details: po
Staphylococcus aureus [23] = experiment: Compound was evaluated in vivo for antibacterial activity against Staphylococcus aureus NCTC 10649 (100 X LD50) (s.c. administration); Range is between (1.0-2.5); details: sc
Staphylococcus aureus [24] = experiment: In vitro mouse protection test against Staphylococcus aureus NCTC 10649 (100 X LD50) (s.c. administration); Range is between (1.0-2.5); details: sc
Staphylococcus aureus [25] = experiment: In vitro mouse protection test against Staphylococcus aureus NCTC 10649 (100 X LD50),(peroral administration); Range is between (7.9-19-7); details: po
Escherichia coli [26] = experiment: […] against Escherichia coli Juhl (100 X LD50) (s.c. administration); Range is between (0.6-1.5); details: sc
Escherichia coli [27] = experiment: Compound was evaluated in vivo for antibacterial activity against Escherichia coli Juhl (100 X LD50) (p.o. administration); Range is between (2.0-5.0); details: po
Escherichia coli [28] = experiment: […] against Escherichia coli Juhl (100 X LD50) (s.c. administration); Range is between(1.0-1.8)

## O=C(O)c1cn(-c2ccc(F)cc2F)c2c(F)c(N3CCNCC3)c(F)cc2c1=O
Escherichia coli [1]
  ED50: 0.3 mg/kg
Klebsiella aerogenes
  MIC: 0.2 µg/mL (≈ 0.475 µM)
Escherichia coli [2]
  MIC: 0.05 µg/mL (≈ 0.119 µM)
Klebsiella pneumoniae
  MIC: 0.05 µg/mL (≈ 0.119 µM)
Pseudomonas aeruginosa [3]
  MIC: 0.78 µg/mL (≈ 1.85 µM)
[4]
  MIC: 0.78 µg/mL (≈ 1.85 µM)
Streptococcus pyogenes
  MIC: 1.56 µg/mL (≈ 3.7 µM)
Staphylococcus aureus [5]
  MIC: 0.39 µg/mL (≈ 0.926 µM)
Staphylococcus aureus [6]
  MIC: 0.39 µg/mL (≈ 0.926 µM)
Enterococcus faecium
  MIC: 1.56 µg/mL (≈ 3.7 µM)
Acinetobacter
  MIC: 0.39 µg/mL (≈ 0.926 µM)
Pseudomonas aeruginosa [7]
  MIC: 0.78 µg/mL (≈ 1.85 µM)

## CN1CCN(c2c(F)cc3c(=O)c(C(=O)O)cn(-c4ccc(F)cc4F)c3c2F)CC1
Klebsiella aerogenes
  MIC: 0.39 µg/mL (≈ 0.896 µM)
Escherichia coli [8]
  ED50 mg/kg: 3.9
Escherichia coli [9]
  ED50 mg/kg: 2.5
Escherichia coli [2]
  MIC: 0.39 µg/mL (≈ 0.896 µM)
Klebsiella pneumoniae
  MIC: 0.2 µg/mL (≈ 0.459 µM)
Pseudomonas aeruginosa [10]
  ED50 mg/kg: 27.9
Pseudomonas aeruginosa [11]
  ED50 mg/kg: 10.3
Pseudomonas aeruginosa [12]
  MIC: 1.56 µg/mL (≈ 3.58 µM)
[4]
  MIC: 0.78 µg/mL (≈ 1.79 µM)
Streptococcus pyogenes
  MIC: 3.1 µg/mL (≈ 7.12 µM)
Staphylococcus aureus [13]
  ED50: 3.7 mg/kg
Staphylococcus aureus [14]
  ED50: 6.1 mg/kg
Staphylococcus aureus [5]
  MIC: 0.39 µg/mL (≈ 0.896 µM)
Staphylococcus aureus [6]
  MIC: 0.39 µg/mL (≈ 0.896 µM)
Enterococcus faecium
  MIC: 6.2 µg/mL (≈ 14.2 µM)
Acinetobacter
  MIC: 0.39 µg/mL (≈ 0.896 µM)
Pseudomonas aeruginosa [7]
  MIC: 3.1 µg/mL (≈ 7.12 µM)

## O=C(O)c1cn(-c2ccc(F)cc2)c2c(F)c(N3CCNCC3)c(F)cc2c1=O
Escherichia coli [15]
  ED50: 3.2 mg/kg
Escherichia coli [16]
  ED50: 1 mg/kg
Escherichia coli [17]
  MIC: 0.1 µg/mL (≈ 0.248 µM)
Klebsiella aerogenes
  MIC: 0.1 µg/mL (≈ 0.248 µM)
Escherichia coli [2]
  MIC: 0.1 µg/mL (≈ 0.248 µM)
Klebsiella pneumoniae
  MIC: 0.05 µg/mL (≈ 0.124 µM)
Pseudomonas aeruginosa [18]
  ED50: 25 mg/kg
Pseudomonas aeruginosa [19]
  ED50: 6.3 mg/kg
Pseudomonas aeruginosa [20]
  ED50: 25 mg/kg
Pseudomonas aeruginosa [21]
  ED50: 6.3 mg/kg
Pseudomonas aeruginosa [12]
  MIC: 0.39 µg/mL (≈ 0.967 µM)
[4]
  MIC: 0.78 µg/mL (≈ 1.93 µM)
Streptococcus pyogenes
  MIC: 1.56 µg/mL (≈ 3.87 µM)
Staphylococcus aureus [22]
  ED50: 12.5 mg/kg
Staphylococcus aureus [23]
  ED50: 1.6 mg/kg
Staphylococcus aureus [24]
  ED50: 1.6 mg/kg
Staphylococcus aureus [25]
  ED50: 12.5 mg/kg
Staphylococcus aureus [5]
  MIC: 0.39 µg/mL (≈ 0.967 µM)
Staphylococcus aureus [6]
  MIC: 0.39 µg/mL (≈ 0.967 µM)
Enterococcus faecium
  MIC: 6.2 µg/mL (≈ 15.4 µM)
Acinetobacter
  MIC: 0.39 µg/mL (≈ 0.967 µM)
Pseudomonas aeruginosa [7]
  MIC: 0.78 µg/mL (≈ 1.93 µM)
Escherichia coli [26]
  ED50: 1 mg/kg
Escherichia coli [27]
  ED50: 3.2 mg/kg

## NC1CCN(c2cc3c(cc2F)c(=O)c(C(=O)O)cn3-c2ccc(F)cc2)C1 (stereo unspecified)
Klebsiella aerogenes
  MIC: 0.05 µg/mL (≈ 0.13 µM)
Escherichia coli [2]
  MIC: 0.02 µg/mL (≈ 0.0519 µM)
Klebsiella pneumoniae
  MIC: 0.02 µg/mL (≈ 0.0519 µM)
Pseudomonas aeruginosa [12]
  MIC: 0.2 µg/mL (≈ 0.519 µM)
[4]
  MIC: 0.05 µg/mL (≈ 0.13 µM)
Streptococcus pyogenes
  MIC: 0.1 µg/mL (≈ 0.259 µM)
Staphylococcus aureus [5]
  MIC: 0.05 µg/mL (≈ 0.13 µM)
Staphylococcus aureus [6]
  MIC: 0.05 µg/mL (≈ 0.13 µM)
Enterococcus faecium
  MIC: 0.78 µg/mL (≈ 2.02 µM)
Acinetobacter
  MIC: 0.2 µg/mL (≈ 0.519 µM)
Pseudomonas aeruginosa [7]
  MIC: 0.2 µg/mL (≈ 0.519 µM)

## CN1CCN(c2c(F)cc3c(=O)c(C(=O)O)cn(-c4ccc(F)cc4)c3c2F)CC1
Klebsiella aerogenes
  MIC: 0.78 µg/mL (≈ 1.87 µM)
Escherichia coli [28]
  ED50 mg/kg: 1.3
Escherichia coli [2]
  MIC: 0.39 µg/mL (≈ 0.934 µM)
Klebsiella pneumoniae
  MIC: 0.39 µg/mL (≈ 0.934 µM)
Pseudomonas aeruginosa [12]
  MIC: 3.1 µg/mL (≈ 7.43 µM)
[4]
  MIC: 0.78 µg/mL (≈ 1.87 µM)
Streptococcus pyogenes
  MIC: 3.1 µg/mL (≈ 7.43 µM)
Staphylococcus aureus [5]
  MIC: 0.39 µg/mL (≈ 0.934 µM)
Staphylococcus aureus [6]
  MIC: 0.39 µg/mL (≈ 0.934 µM)
Enterococcus faecium
  MIC: 3.1 µg/mL (≈ 7.43 µM)
Acinetobacter
  MIC: 0.39 µg/mL (≈ 0.934 µM)
Pseudomonas aeruginosa [7]
  MIC: 3.1 µg/mL (≈ 7.43 µM)

From ChEMBL document CHEMBL1123847, “Synthesis and structure-activity relationship of 1-aryl-6,8-difluoroquinolone antibacterial agents” (1987)
